Results reported in patent US20260070887A1 (Shenzhen Zhongge Biological Technology Co., Ltd., priority 2022, published 2026).
Where two headings read alike, the source gives them in different places.

Key:
OVCAR-3 cells = assay: OVCAR-3 cell proliferation (Cell Titer-Glo, 10 days); assay type: cell-based, human
Outline: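 IC50 was fitted by nonlinear regression of percent inhibition versus the 0.1% DMSO control. Luminescence was read with Cell Titer-Glo after 10 days of co-culture of logarithmic-phase cells (400/well) with compound at 0.12 nM–10 μM final, in medium with 20% fetal bovine serum and 0.01 mg/mL insulin.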

HCT116 cells = assay: HCT116 cell anti-proliferation assay; assay type: cell-based; conditions: 6 days, Cell Titer-Glo
Method: HCT116 (ATCC, CCL-247) cells were cultured in McCoy's 5a complete medium (Gibco, 12330-031) containing 10% fetal bovine serum (Gibco, 10099-141C), 100 U penicillin and 100 μg/mL streptomycin (Gibco, 15140-122). The Promega kit Cell Titer-Glo (Promega: G7572) was used in this method for test.
HCT116 cells were cultured in T75 cell flasks (Corning, 430641) and the cells were placed in a 37° C., 5% CO2 incubator. Cells were passaged when reaching a cell density of 70%-80%, approximately twice per week. To perform the experiment, the test compounds were dissolved in DMSO to prepare a 10 mM stock solution, and the test compounds were added to the 384-well cell test plate (Corning, 3765) at the predetermined concentration (19.5 nM-[…]) using ECHO. […] cells were digested and 150 cells (60 μL medium) were seeded per well in the test plate. The 384-well plate was then centrifuged at 500 rpm for 1 minute, and then placed in a 37° C., 5% CO2 incubator for 6 days of cultivation. Six days later, the cell culture plate was equilibrated for 10 minutes at room temperature, 25 μL of Cell Titer-Glo was added to each well, and the mixture was shaken and mixed well and let stand for 5 minutes. The luminescence values for samples in various wells were read using a microplate reader in Luminescence mode.
The percentage of inhibition of cell proliferation by the test compound at each concentration was calculated by comparing with the values of the control group (0.2% DMSO). The IC50 values of the compounds were obtained by concentration-inhibition rate nonlinear regression analysis of the test compounds using GraphPad Prism 9.

KIF18A = KIF18A (Homo sapiens (Human), UniProt Q8NI77); assay: KIF18A ATPase activity under tubulin stimulation (ADP-Glo assay); assay type: biochemical; conditions: KIF18A 30 nM, ATP 150 μM, pig microtubules
Chain of KIF18A (Q8NI77 whole entry): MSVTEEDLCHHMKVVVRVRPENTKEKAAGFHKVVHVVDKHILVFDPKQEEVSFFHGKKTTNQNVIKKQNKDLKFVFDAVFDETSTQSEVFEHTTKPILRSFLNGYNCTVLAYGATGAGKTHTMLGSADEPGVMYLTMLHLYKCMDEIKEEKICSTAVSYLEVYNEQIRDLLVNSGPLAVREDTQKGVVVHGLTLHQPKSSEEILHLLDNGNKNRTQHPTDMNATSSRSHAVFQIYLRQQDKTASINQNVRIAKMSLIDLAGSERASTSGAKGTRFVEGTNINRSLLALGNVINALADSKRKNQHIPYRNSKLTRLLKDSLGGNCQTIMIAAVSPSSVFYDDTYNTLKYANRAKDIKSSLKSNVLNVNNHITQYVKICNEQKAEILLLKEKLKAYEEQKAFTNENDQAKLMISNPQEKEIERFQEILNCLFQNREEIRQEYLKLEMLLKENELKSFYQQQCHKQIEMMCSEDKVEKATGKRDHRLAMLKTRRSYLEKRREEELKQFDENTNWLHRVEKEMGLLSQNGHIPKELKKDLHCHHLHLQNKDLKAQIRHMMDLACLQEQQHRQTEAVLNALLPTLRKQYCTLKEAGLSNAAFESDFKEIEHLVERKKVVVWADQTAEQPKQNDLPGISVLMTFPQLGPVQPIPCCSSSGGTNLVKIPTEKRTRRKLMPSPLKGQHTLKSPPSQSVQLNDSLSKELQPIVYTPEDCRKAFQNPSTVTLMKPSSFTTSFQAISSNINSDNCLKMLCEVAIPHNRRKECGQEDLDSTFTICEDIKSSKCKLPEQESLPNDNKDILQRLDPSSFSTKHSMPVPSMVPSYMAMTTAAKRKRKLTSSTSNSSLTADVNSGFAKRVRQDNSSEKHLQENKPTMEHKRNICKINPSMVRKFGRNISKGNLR
Chain of KIF18A (P02550 whole entry partner): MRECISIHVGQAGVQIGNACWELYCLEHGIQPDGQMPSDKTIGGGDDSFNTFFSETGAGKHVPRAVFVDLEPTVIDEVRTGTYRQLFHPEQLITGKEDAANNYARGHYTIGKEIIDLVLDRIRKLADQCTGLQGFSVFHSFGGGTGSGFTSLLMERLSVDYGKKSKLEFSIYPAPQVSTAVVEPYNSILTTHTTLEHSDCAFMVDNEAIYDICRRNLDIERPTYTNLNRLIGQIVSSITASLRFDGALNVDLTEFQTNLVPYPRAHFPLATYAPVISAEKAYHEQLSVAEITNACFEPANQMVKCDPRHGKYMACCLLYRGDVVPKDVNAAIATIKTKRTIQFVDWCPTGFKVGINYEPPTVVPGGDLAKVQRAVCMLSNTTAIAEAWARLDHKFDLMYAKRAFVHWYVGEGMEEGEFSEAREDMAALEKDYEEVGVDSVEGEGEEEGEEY
Chain of KIF18A (P02554 whole entry partner): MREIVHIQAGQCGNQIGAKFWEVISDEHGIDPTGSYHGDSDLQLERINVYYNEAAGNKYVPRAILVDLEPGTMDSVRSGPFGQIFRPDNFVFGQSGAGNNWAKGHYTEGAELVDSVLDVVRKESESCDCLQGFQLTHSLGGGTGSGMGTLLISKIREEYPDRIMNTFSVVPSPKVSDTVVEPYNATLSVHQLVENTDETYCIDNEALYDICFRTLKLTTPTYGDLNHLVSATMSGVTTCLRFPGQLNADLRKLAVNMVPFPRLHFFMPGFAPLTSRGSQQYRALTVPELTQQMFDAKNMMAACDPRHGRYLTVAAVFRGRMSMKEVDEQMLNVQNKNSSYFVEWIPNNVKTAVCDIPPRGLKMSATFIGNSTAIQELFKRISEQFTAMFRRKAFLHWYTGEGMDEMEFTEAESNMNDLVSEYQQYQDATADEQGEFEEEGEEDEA

| Compound | IC50 (OVCAR-3 cells; Homo sapiens, OVCAR-3, 240 h) [nM] | IC50 (HCT116 cells; Homo sapiens, HCT-116, 144 h) [nM] | IC50 (KIF18A) [nM] | IC50 (OVCAR-3 cells) [nM] | IC50 (HCT116 cells) [nM] |
| --- | --- | --- | --- | --- | --- |
| O=C(Nc1cccc2c1cc1n2CCC(F)(F)C1)c1ccc(NS(=O)(=O)CCO)cc1N1CCC(=C(F)F)CC1 [Example 374, N-(8,8-difluoro-6,7,8,9-tetrahydropyridino[1,2-a]indol-1-yl)-2-(4-(difluoromethylene)piperidin-1-yl)-4-((2-hydroxyethyl)sulfonamido)benzamide] | ≤ 50 | 8700 | ≤ 50 |  |  |
| O=C(Nc1cccc2c1cc1n2CC2CCC1O2)c1ccc(NS(=O)(=O)CCO)cc1N1CCC(=C(F)F)CC1 (stereo not drawn) [Compound 398, 2-(4-(difluoromethylene)piperidin-1-yl)-4-((2-hydroxyethyl)sulfonamido)-N-(7,8,9,10-tetrahydro-6H-7,10-epoxyazeto[1,2-a]indol-1-yl)benzamide] |  |  | 50 to 500 | ≤ 50 | > 10000 |
| CC1(C)Cn2c(nc3c(NC(=O)c4ccc(NS(=O)(=O)CCO)cc4N4CCC5(CC4)CC5)cccc32)CO1 [Compound 391, N-(3,3-dimethyl-3,4-dihydro-1H-benzo[4,5]imidazo[2,1-c][1,4]oxazin-9-yl)-4-((2-hydroxyethyl)sulfonamido)-2-(6-azaspiro[2.5]octan-6-yl)benzamide] | ≤ 50 | > 10000 | 50 to 500 |  |  |
| CC1(C)Cn2c(cc3c(NC(=O)c4ccc(NS(=O)(=O)CCO)cc4N4CCC5(CC4)CC5)ccc(C#N)c32)CO1 [Compound 392, N-(6-cyano-3,3-dimethyl-3,4-dihydro-1H-[1,4]oxazino[4,3-a]indol-9-yl)-4-((2-hydroxyethyl)sulfonamido)-2-(6-azaspiro[2.5]oct-6-yl)benzamide] | ≤ 50 | > 10000 | ≤ 50 |  |  |
